# Source: PubChem BioAssay AID2060502 (Molecular Pharmacology Branch, DTP, NCI, 2025)
# Several values for one entry are separate records, joined by “and”; a condition that tells them apart may be missing. Equal values may be shown once.
# Tested on: 885724-159-R-J1-PDC complex spheroid viability
# Experiment: Anticancer human tumor 885724-159-R-J1-PDC patient-derived pancreatic adenocarcinoma cell line growth inhibition [GQUAD]
# Conditions: for viability, T/C: stronger effect = lower value
# Excerpt: DNA G-quadruplex Stabilizer Agents in Combinations in Complex Spheroids
# A high-throughput screen of multi-cell type tumor spheroids was designed to identify active combinations of DNA G-quadruplex stabilizer agents and targeted small molecules. Complex spheroids include a stromal component modeled by human endothelial cells (HUVEC) and fibroblasts modeled by human mesenchymal stem cells (MSCs). The concentration ranges selected for each drug and investigational agent were based upon clinically achievable concentrations if the clinical Cmax of the agent was known.
# Compounds. The drugs and investigational agents: pidnarulex (CX-5461; NSC782164), APTO-253 (NSC789042), BRACO-19 (NSC847499), peposertib (NSC802822), ceralasertib (NSC780249), elimusertib (NSC800525), camonsertib (NSC841442), AZD-1390 (NSC803789), olaparib (NSC753686), talazoparib (NSC767125), ART-558 (NSC835418), sotorasib (NSC818433), MRTX-1133 (NSC836407), SN-38 (NSC673596), topotecan (NSC609699), etoposide (NSC141540), doxorubicin (NSC123127), gemcitabine (NSC613327), 5-fluorouracil (NSC19893), paclitaxel (NSC125973), vemurafenib (NSC761431), panobinostat (NSC761190), R-306465 (JNJ-16241199; NSC773264), adavosertib (NSC754352), TP-3654 (NSC805149), carboplatin (NSC241240), KSQ-4279 (NSC840948), and staurosporine (NSC755774) were obtained from the National Cancer Institute (NCI) Developmental Therapeutics Program Chemical Repository (34). The FDA-approved anticancer drug set is available from the NCI Developmental Therapeutics Program. […] The stock solutions were prepared in dimethyl sulfoxide (DMSO, Sigma-Aldrich, St. Louis, MO, cat. D2650) at 800-fold the tested concentration and stored at -70 degrees C prior to their use. All drugs and investigational agents were tested over a range starting from a high concentration at or near the clinical Cmax and decreasing in half-log increments. If the clinical Cmax for an agent had not been determined, the highest concentration tested was 10 microM.
# 2.3 Cell Culture. All cells were maintained in an incubator at 37 degrees C and 5% CO2 with 95% humidity. The PDC lines were cultured according to standard operating procedures established by the NCI PDMR. All PDCs were thawed and cultured in Matrigel-coated flasks prepared with a working solution of 1X Ham's F-12 nutrient mix, without supplementation (Invitrogen, cat. 11765054), 100 U/mL penicillin-streptomycin (Invitrogen, cat. 15140122), and 2.5% Matrigel (Corning Inc., cat. 354248) for the first three passages. The 857933-349-R-J2-PDC line was cultured in 6C/Colon 1B media, which includes advanced DMEM/F-12 (Thermo Fisher Scientific, cat. 12634028), 10 mM HEPES (Thermo Fisher Scientific, cat. 15630080), 1X GlutaMAX supplement (Thermo Fisher Scientific, cat. 35050061), 0.1 mg/mL primocin (InvivoGen, cat. ant-pm-2), 10% defined fetal bovine serum, heat inactivated (HyClone Laboratories Inc., cat. SH30070.03HI), 50% L-WRN conditioned media (ATCC, cat. CRL-3276), 1.25 mM N-Acetyl-L-cysteine (Sigma-Aldrich, cat. A9165), 10 mM nicotinamide (Sigma-Aldrich, cat. N0636), 1X B-27 supplement (Thermo Fisher Scientific, cat. 17504044), 1X N-2 supplement (Thermo Fisher Scientific, cat. 17502048), 10 microM Y-27632 dihydrochloride (Tocris Bioscience, cat. 1254), and 50 ng/mL human EGF recombinant protein (Thermo Fisher Scientific, cat. PHG0311). The 485176-168-R4-J1-PDC line was cultured in Panc media, which includes all 6C/Colon 1B media components plus 100 ng/mL human FGF-10 (Thermo Fisher Scientific, cat. 100-26), 500 nM SB-431542 (Selleckchem, cat. S1067), and gastrin (Tocris, cat. 3006).
# […]
# 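Further: spheroids exposed to agents for seven days before readout.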
# 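Wherever viability, T/C is given: percent of vehicle control viability where 100% = DMSO wells.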
smiles,measurement,setting,value
CC(=O)O[C@H]1C(=O)[C@@]2(C)[C@H]([C@H](OC(=O)c3ccccc3)[C@]3(O)C[C@H](OC(=O)[C@H](O)[C@@H](NC(=O)c4ccccc4)c4ccccc4)C(C)=C1C3(C)C)[C@]1(OC(C)=O)CO[C@@H]1C[C@@H]2O,"viability, T/C",compound 0.0316 µM,100% and 92% and 97.8%
same,"viability, T/C",compound 0.1 µM,66.6% and 80.5% and 89.4%
same,"viability, T/C",compound 0.316 µM,82.2% and 93.6% and 90.7%
same,"viability, T/C",compound 1 µM,83.6% and 86.1% and 96.7%
same,"viability, T/C",compound 3.16 µM,89.6% and 91% and 100%
same,"viability, T/C",compound 10 µM,93% and 104% and 107%
same,IC50,curve of compound,> 10 µM
COc1cc(C2c3cc4c(cc3C(OC3OC5COC(C)OC5C(O)C3O)C3COC(=O)C23)OCO4)cc(OC)c1O (centres undefined) + Cc1cnc(CNC(=O)c2c(=O)c3ccc(N4CCCN(C)CC4)nc3n3c2sc2ccccc23)cn1,IC50,"curve of first compound, second compound 0.0316 µM",> 10 µM
same,IC50,"curve of first compound, second compound 0.1 µM",> 10 µM
same,IC50,"curve of first compound, second compound 0.316 µM",> 10 µM
same,IC50,"curve of first compound, second compound 1 µM",> 10 µM
same,IC50,"curve of first compound, second compound 3.16 µM",> 10 µM
same,IC50,"curve of first compound, second compound 10 µM",> 10 µM
same,"viability, T/C","second compound 0.0316 µM, first compound 0.0316 µM",113%
same,"viability, T/C","second compound 0.0316 µM, first compound 0.1 µM",98.3%
same,"viability, T/C","second compound 0.0316 µM, first compound 0.316 µM",101%
same,"viability, T/C","second compound 0.0316 µM, first compound 1 µM",91.5%
same,"viability, T/C","second compound 0.0316 µM, first compound 3.16 µM",84.5%
same,"viability, T/C","second compound 0.0316 µM, first compound 10 µM",82.4%
same,"viability, T/C","second compound 0.1 µM, first compound 0.0316 µM",116%
same,"viability, T/C","second compound 0.1 µM, first compound 0.1 µM",107%
same,"viability, T/C","second compound 0.1 µM, first compound 0.316 µM",90.2%
same,"viability, T/C","second compound 0.1 µM, first compound 1 µM",100%
same,"viability, T/C","second compound 0.1 µM, first compound 3.16 µM",95.2%
same,"viability, T/C","second compound 0.1 µM, first compound 10 µM",81.9%
same,"viability, T/C","second compound 0.316 µM, first compound 0.0316 µM",108%
same,"viability, T/C","second compound 0.316 µM, first compound 0.1 µM",105%
same,"viability, T/C","second compound 0.316 µM, first compound 0.316 µM",102%
same,"viability, T/C","second compound 0.316 µM, first compound 1 µM",91.1%
same,"viability, T/C","second compound 0.316 µM, first compound 3.16 µM",84.8%
same,"viability, T/C","second compound 0.316 µM, first compound 10 µM",79.3%
same,"viability, T/C","second compound 1 µM, first compound 0.0316 µM",105%
same,"viability, T/C","second compound 1 µM, first compound 0.1 µM",87.2%
same,"viability, T/C","second compound 1 µM, first compound 0.316 µM",97.8%
same,"viability, T/C","second compound 1 µM, first compound 1 µM",89.6%
same,"viability, T/C","second compound 1 µM, first compound 3.16 µM",84.8%
same,"viability, T/C","second compound 1 µM, first compound 10 µM",76.1%
same,"viability, T/C","second compound 3.16 µM, first compound 0.0316 µM",79.8%
same,"viability, T/C","second compound 3.16 µM, first compound 0.1 µM",81.4%
same,"viability, T/C","second compound 3.16 µM, first compound 0.316 µM",87.6%
same,"viability, T/C","second compound 3.16 µM, first compound 1 µM",84.2%
same,"viability, T/C","second compound 3.16 µM, first compound 3.16 µM",83.5%
same,"viability, T/C","second compound 3.16 µM, first compound 10 µM",71.1%
same,"viability, T/C","second compound 10 µM, first compound 0.0316 µM",81.7%
same,"viability, T/C","second compound 10 µM, first compound 0.1 µM",79.5%
same,"viability, T/C","second compound 10 µM, first compound 0.316 µM",76.7%
same,"viability, T/C","second compound 10 µM, first compound 1 µM",82.4%
same,"viability, T/C","second compound 10 µM, first compound 3.16 µM",78.3%
same,"viability, T/C","second compound 10 µM, first compound 10 µM",70.7%
